Measured values as given in the supplement of paper PMC11451515.

What was measured:
Settings in all cases: 48 h
P12-Ichikawa = experiment: AUC of viability dose-response curve (% viability x log10 dose units); higher = less sensitive
Method in brief: (§1)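 Leukemia cells adapted to each medium were seeded in 1536-well plates (500 or 1000 cells/well) and given library compounds in DMSO for 48 h at 37°C. The 11 threefold doses spanned 47 μM to 0.79 nM, and CellTiter-Glo One luminescence was normalised per plate to DMSO and cell-free wells before four-parameter log-logistic fitting on log10 dose. Area under the curve was integrated with the trapezoidal rule, scaling curves above full viability and removing curves that failed quality control.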

SEM cells [1] = experiment: as above
Method in brief: as §1

NOMO1 [2] = experiment: as above
Method in brief: as §1

SEM cells [3] = experiment: cell viability relative to DMSO control; higher = less cytotoxic
Method in brief: (§2)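 Leukemia cells (NOMO1 or SEM, 500 cells/well; P12-Ichikawa, 1000 cells/well) were seeded in 5 μl in 1536-well plates after at least four passages of adaptation to each medium. They received library compounds in DMSO by pin dosing, 11 threefold points from 47 μM to 0.79 nM. Luminescence with CellTiter-Glo One was read after 48 h at 37°C. Viability is stated per plate relative to DMSO wells, with cell-free wells as background.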

NOMO1 [4] = experiment: as above
Method in brief: as §2

COC1=CC(=CC(=C1)C2=CC=C3N=CC\4=C(N(C(=O)\C=C4)C5=CC(=C(C=C5)N6CCNCC6)C(F)(F)F)C3=C2)OC
AUC of viability dose-response curve
Settings | NOMO1 [2] | P12-Ichikawa | SEM cells [1]
HPLM + 10% dialyzed FBS | 387 | 440 | 406
RPMI 5 mM glucose + 10% FBS | 456 | 407 | 414
RPMI 5 mM glucose + 10% dialyzed FBS | 436 | 412 | 413

N[C@@H]1C[C@H]1c1ccccc1
AUC of viability dose-response curve
Settings | NOMO1 [2] | P12-Ichikawa | SEM cells [1]
HPLM + 10% dialyzed FBS | 464 | 437 | 449
RPMI 5 mM glucose + 10% FBS | 468 | 462 | 456
RPMI 5 mM glucose + 10% dialyzed FBS | 465 | 459 | 457

SEM cells [3], HPLM + 10% dialyzed FBS
Settings | cell viability [%]
0.000781 µM | 122
0.00234 µM | 115
0.00702 µM | 148
0.0211 µM | 124
0.0632 µM | 107
0.19 µM | 137
0.569 µM | 131
1.71 µM | 119
5.12 µM | 107
15.4 µM | 117
46.1 µM | 109

C[S+](=O)([O-])N1CCN(Cc2cc3nc(-c4cccc5[nH]ncc45)nc(N4CCOCC4)c3s2)CC1
AUC of viability dose-response curve
Settings | NOMO1 [2] | P12-Ichikawa | SEM cells [1]
HPLM + 10% dialyzed FBS | 381 | 428 | 356
RPMI 5 mM glucose + 10% FBS | 421 | 420 | 348
RPMI 5 mM glucose + 10% dialyzed FBS | 384 | 414 | 348

cell viability [%]
Settings | HPLM + 10% dialyzed FBS | RPMI 5 mM glucose + 10% FBS | RPMI 5 mM glucose + 10% dialyzed FBS
NOMO1 [4], 0.000781 µM | – | 113 | –
NOMO1 [4], 0.00234 µM | – | 133 | –
NOMO1 [4], 0.00702 µM | – | 116 | –
NOMO1 [4], 0.0211 µM | – | 132 | –
NOMO1 [4], 0.0632 µM | – | 128 | –
NOMO1 [4], 0.19 µM | – | 133 | –
NOMO1 [4], 0.569 µM | – | 117 | –
NOMO1 [4], 1.71 µM | – | 107 | –
NOMO1 [4], 5.12 µM | – | 80.3 | –
NOMO1 [4], 15.4 µM | – | 80.6 | –
NOMO1 [4], 46.1 µM | – | 65.5 | –
SEM cells [3], 0.000781 µM | 97.5 | 106 | 115
SEM cells [3], 0.00234 µM | 121 | 121 | 122
SEM cells [3], 0.00702 µM | 116 | 129 | 129
SEM cells [3], 0.0211 µM | 111 | 105 | 127
SEM cells [3], 0.0632 µM | 103 | 112 | 110
SEM cells [3], 0.19 µM | 92.4 | 108 | 106
SEM cells [3], 0.569 µM | 82 | 89 | 78.6
SEM cells [3], 1.71 µM | 74.9 | 67.4 | 78
SEM cells [3], 5.12 µM | 56.9 | 46.6 | 57
SEM cells [3], 15.4 µM | 31.7 | 23.2 | 42.6
SEM cells [3], 46.1 µM | 12.9 | 8.22 | 16

OC1=CC(=C(C=C1)\C2=C(O)\C(=O)C3=C(O2)C=C(O)C=C3O)O
AUC of viability dose-response curve
Settings | NOMO1 [2] | P12-Ichikawa | SEM cells [1]
HPLM + 10% dialyzed FBS | 450 | 442 | 461
RPMI 5 mM glucose + 10% FBS | 433 | 444 | 459
RPMI 5 mM glucose + 10% dialyzed FBS | 467 | 443 | 465

NOMO1 [4], HPLM + 10% dialyzed FBS
Settings | cell viability [%]
0.000781 µM | 121
0.00234 µM | 118
0.00702 µM | 138
0.0211 µM | 136
0.0632 µM | 120
0.19 µM | 137
0.569 µM | 132
1.71 µM | 119
5.12 µM | 112
15.4 µM | 106
46.1 µM | 71.5

CC(C)c1cccc(C(C)C)c1O
AUC of viability dose-response curve
Settings | NOMO1 [2] | P12-Ichikawa | SEM cells [1]
HPLM + 10% dialyzed FBS | 463 | 453 | 453
RPMI 5 mM glucose + 10% FBS | 453 | 463 | 459
RPMI 5 mM glucose + 10% dialyzed FBS | 455 | 447 | 469

O=C(Nc1nc2cccc(-c3ccc(CN4CC[S+](=O)([O-])CC4)cc3)n2n1)C1CC1
AUC of viability dose-response curve
Settings | NOMO1 [2] | P12-Ichikawa | SEM cells [1]
HPLM + 10% dialyzed FBS | 440 | 455 | 441
RPMI 5 mM glucose + 10% FBS | 449 | 454 | 446
RPMI 5 mM glucose + 10% dialyzed FBS | 444 | 455 | 432

cell viability [%], SEM cells [3]
Settings | RPMI 5 mM glucose + 10% FBS | RPMI 5 mM glucose + 10% dialyzed FBS
0.000781 µM | 111 | 120
0.00234 µM | 133 | 125
0.00702 µM | 120 | 109
0.0211 µM | 124 | 126
0.0632 µM | 136 | 130
0.19 µM | 146 | 152
0.569 µM | 130 | 133
1.71 µM | 121 | 124
5.12 µM | 103 | 90.1
15.4 µM | 107 | 94.6
46.1 µM | 21.3 | 31.1

CCc1cnn2c(NCc3ccc[n+]([O-])c3)cc(N3CCCC[C@H]3CCO)nc12
AUC of viability dose-response curve
Settings | NOMO1 [2] | P12-Ichikawa | SEM cells [1]
HPLM + 10% dialyzed FBS | 224 | 236 | 206
RPMI 5 mM glucose + 10% FBS | 231 | 230 | 193
RPMI 5 mM glucose + 10% dialyzed FBS | 223 | 234 | 198

C[C@@H]1C[C@@H]([C@H](O)CC2CC(=O)NC(=O)C2)C(=O)[C@@H](C)C1
AUC of viability dose-response curve
Settings | NOMO1 [2] | P12-Ichikawa | SEM cells [1]
HPLM + 10% dialyzed FBS | 315 | 312 | 279
RPMI 5 mM glucose + 10% FBS | 337 | 288 | 268
RPMI 5 mM glucose + 10% dialyzed FBS | 323 | 299 | 295

Cc1cccc(-c2n[nH]cc2-c2ccc3ncccc3n2)n1
AUC of viability dose-response curve
Settings | HPLM + 10% dialyzed FBS | RPMI 5 mM glucose + 10% FBS | RPMI 5 mM glucose + 10% dialyzed FBS
NOMO1 [2] | 447 | 458 | 430
SEM cells [1] | 459 | 449 | 451

O=C1NC(=O)/C(=C/c2ccc3c(c2)OC(F)(F)O3)S1
AUC of viability dose-response curve
Settings | NOMO1 [2] | P12-Ichikawa | SEM cells [1]
HPLM + 10% dialyzed FBS | 465 | 462 | 464
RPMI 5 mM glucose + 10% FBS | 446 | 463 | 466
RPMI 5 mM glucose + 10% dialyzed FBS | 457 | 440 | 466

F\C1=C\NC(=O)NC1=O
AUC of viability dose-response curve
Settings | NOMO1 [2] | P12-Ichikawa | SEM cells [1]
HPLM + 10% dialyzed FBS | 414 | 405 | 407
RPMI 5 mM glucose + 10% FBS | 437 | 435 | 410
RPMI 5 mM glucose + 10% dialyzed FBS | 422 | 413 | 412

CN1CCN(c2ncc(-c3cc(Cl)cc(Cl)c3Cl)c(N)n2)CC1
AUC of viability dose-response curve
Settings | HPLM + 10% dialyzed FBS | RPMI 5 mM glucose + 10% FBS | RPMI 5 mM glucose + 10% dialyzed FBS
NOMO1 [2] | 337 | 305 | 341
SEM cells [1] | 467 | 459 | 450

cell viability [%], SEM cells [3]
Settings | RPMI 5 mM glucose + 10% FBS | RPMI 5 mM glucose + 10% dialyzed FBS
0.000781 µM | 111 | 106
0.00234 µM | 117 | 118
0.00702 µM | 133 | 117
0.0211 µM | 137 | 133
0.0632 µM | 135 | 139
0.19 µM | 135 | 135
0.569 µM | 126 | 150
1.71 µM | 135 | 141
5.12 µM | 155 | 144
15.4 µM | 138 | 141
46.1 µM | 132 | 132
